Data published in patent publication US8106003B2, “Peptides and methods for the treatment of inflammatory disease” (Auckland Uniservices Limited, priority 2004, dated 2012).

Tested on: β2 integrin (αLβ2)-mediated adhesion of H9 cells to ICAM-1
Assay: Cell adhesion assay: H9 cells to ICAM-1-Fc (integrin specificity)
Type: cell-based, human
Settings: Mn++-activated H9 cells
Protocol: Cell adhesion assays. Lab-Tek 16-well glass slides (Nunc) or flat-bottomed 96-well maxisorb plates (Nunc) were coated with purified mouse MAdCAM-1-Fc, human VCAM-1-Fc, and human ICAM-1-Fc (70 to 100 μl of 5 to 10 μg/ml), and incubated at 4° C. overnight. Slides were washed once with PBS, and blocked with FCS for 2 h at room temperature. Slides were washed with Hanks balanced salt solution (HBSS) containing 10 mM Hepes. Cells were either left unlabeled or labeled with the fluorescent dye chloromethyl fluorescein diacetate (CMFDA; Molecular Probes, Oregon), and activated by resuspension in HBSS containing 10 mM Hepes supplemented with 2 mM Ca^++ and 2 mM Mn^++. Cells were alternatively activated with 50 ng/ml PMA, or by incubating with AlF4^− (10 mM NaF and 40 µM AlCl3). They were preincubated with peptides at different concentrations for 10 min at room temperature, checked for viability by trypan blue exclusion, and then 10^6 cells added to each coated well and left to adhere for 30 min at room temperature. […] The number of adherent cells was determined by counting the number of adherent cells in four independent fields at 100× magnification under an inverted microscope. […] The fluorescence of CMFDA-labeled adherent cells was measured using a VICTOR 1420 multilabel counter (Wallac). […]

YDDREY: cell permeable YDRREY (SEQ ID NO. 1) peptide, carrier not stated at this place
inhibition of H9 cell binding to ICAM-1: neither the cell permeable YDDREY (SEQ ID NO. 1) peptide nor the β3 CARD were able to block
